Measurements: the supplement of paper PMC8617591

What was measured:
[1] = test system: Mycobacterium tuberculosis Erdman (autoluminescent); test: GRinf, maximum normalised growth rate inhibition (unitless (-1 to 1)); higher = less effect (negative = killing)
Description: (§1)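 DiaMOND dose responses (10 doses, 1.5- or 2-fold spacing, equipotent around IC90) of autoluminescent M. tuberculosis Erdman in 8 in vitro models. Read-out is OD600, or luminescence for the intracellular (J774) and dormancy models, background-subtracted and normalised to untreated wells. A 3-parameter Hill fit gives Einf and AUC25 (area to IC25 normalised by IC25); GRinf comes from a Hill fit of the Hafner normalised growth rate. Biological replicates passing QC are averaged. Single drugs only.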

[2] = test system: Mycobacterium tuberculosis Erdman (autoluminescent); test: AUC25, normalised area under dose response up to IC25 (fraction (0-1)); higher = more potent at low dose
Description: as §1

[3] = test system: Mycobacterium tuberculosis Erdman (autoluminescent); test: Einf, fitted maximum growth inhibition (fraction); higher = stronger maximal inhibition
Description: as §1

O=[N+]([O-])c1cn2c(n1)OC[C@@H](OCc1ccc(OC(F)(F)F)cc1)C2 [pretomanid]
Conditions | AUC25, [2] | Einf, [3] | GRinf, [1]
in vitro model: acidic pH 5.7, time point: constant (~7 days, model-specific) | 0.109 | 0.891 | -0.472
in vitro model: acidic pH 5.7, time point: terminal (~4-5 doublings, model-specific) | 0.0605 | 0.983 | -0.294
in vitro model: intracellular J774, time point: constant = terminal | – | 1 | -0.539

Conditions | AUC25, [2] | Einf, [3] | GRinf, [1]
in vitro model: butyrate, time point: constant (~7 days, model-specific) | 0.0902 | 0.949 | -0.111
in vitro model: butyrate, time point: terminal (~4-5 doublings, model-specific) | 0.0573 | 0.98 | -0.114
in vitro model: cholesterol 0.05 mM, time point: constant (~7 days, model-specific) | 0.122 | 0.741 | -0.205
in vitro model: cholesterol 0.05 mM, time point: terminal (~4-5 doublings, model-specific) | 0.0841 | 0.927 | -0.0295
in vitro model: cholesterol-high 0.2 mM, time point: constant (~7 days, model-specific) | 0.0644 | 0.888 | -0.269
in vitro model: cholesterol-high 0.2 mM, time point: terminal (~4-5 doublings, model-specific) | 0.044 | 0.943 | -0.393
in vitro model: dormancy (butyrate + nitrate, low O2), time point: constant (~7 days, model-specific) | 0.0707 | 0.914 | 0.272
in vitro model: dormancy (butyrate + nitrate, low O2), time point: terminal (~4-5 doublings, model-specific) | 0.0458 | 0.994 | -0.0972
in vitro model: standard 7H9 glycerol, time point: constant = terminal | 0.0636 | 0.939 | -0.0451
in vitro model: valerate, time point: constant (~7 days, model-specific) | 0.136 | 0.948 | -0.0946
in vitro model: valerate, time point: terminal (~4-5 doublings, model-specific) | 0.0896 | 0.96 | -0.00421

NC(=O)c1cnccn1 [pyrazinamide]
Conditions | AUC25, [2] | Einf, [3] | GRinf, [1]
in vitro model: acidic pH 5.7, time point: constant (~7 days, model-specific) | 0.12 | 0.74 | -0.0384
in vitro model: acidic pH 5.7, time point: terminal (~4-5 doublings, model-specific) | 0.124 | 0.881 | 0.0463
in vitro model: intracellular J774, time point: constant = terminal | – | 0.977 | -0.393

Conditions | AUC25, [2] | Einf, [3] | GRinf, [1]
in vitro model: butyrate, time point: constant (~7 days, model-specific) | 0.135 | 0.921 | -1
in vitro model: butyrate, time point: terminal (~4-5 doublings, model-specific) | 0.098 | 0.954 | -1
in vitro model: cholesterol 0.05 mM, time point: constant (~7 days, model-specific) | 0.154 | 0.394 | 0.111
in vitro model: cholesterol 0.05 mM, time point: terminal (~4-5 doublings, model-specific) | 0.142 | 0.803 | 0.0744
in vitro model: cholesterol-high 0.2 mM, time point: constant (~7 days, model-specific) | 0.0952 | 0.765 | -0.0736
in vitro model: cholesterol-high 0.2 mM, time point: terminal (~4-5 doublings, model-specific) | 0.0753 | 0.959 | -0.64
in vitro model: dormancy (butyrate + nitrate, low O2), time point: constant (~7 days, model-specific) | 0.0813 | 0.939 | -0.934
in vitro model: standard 7H9 glycerol, time point: constant = terminal | 0.104 | 0.291 | 0.582
in vitro model: valerate, time point: constant (~7 days, model-specific) | 0.0917 | 0.8 | -0.597
in vitro model: valerate, time point: terminal (~4-5 doublings, model-specific) | 0.0645 | 0.916 | -0.749

CO[C@H]1/C=C/O[C@@]2(C)Oc3c(C)c(O)c4c(O)c(c(/C=N/N5CCN(C)CC5)c(O)c4c3C2=O)NC(=O)/C(C)=C\C=C\[C@H](C)[C@H](O)[C@@H](C)[C@@H](O)[C@@H](C)[C@H](OC(C)=O)[C@@H]1C [rifampicin]
Conditions | AUC25, [2] | Einf, [3] | GRinf, [1]
in vitro model: acidic pH 5.7, time point: constant (~7 days, model-specific) | 0.0889 | 0.838 | -0.0959
in vitro model: acidic pH 5.7, time point: terminal (~4-5 doublings, model-specific) | 0.0838 | 0.98 | -0.261
in vitro model: intracellular J774, time point: constant = terminal | – | 0.971 | -0.261

Conditions | AUC25, [2] | Einf, [3] | GRinf, [1]
in vitro model: butyrate, time point: constant (~7 days, model-specific) | 0.112 | 0.892 | 0.0824
in vitro model: butyrate, time point: terminal (~4-5 doublings, model-specific) | 0.1 | 0.956 | 0.0686
in vitro model: cholesterol 0.05 mM, time point: constant (~7 days, model-specific) | 0.093 | 0.503 | 0.296
in vitro model: cholesterol 0.05 mM, time point: terminal (~4-5 doublings, model-specific) | 0.0796 | 0.855 | -0.0493
in vitro model: cholesterol-high 0.2 mM, time point: constant (~7 days, model-specific) | 0.0905 | 0.927 | -0.416
in vitro model: cholesterol-high 0.2 mM, time point: terminal (~4-5 doublings, model-specific) | 0.0772 | 0.999 | -0.773
in vitro model: dormancy (butyrate + nitrate, low O2), time point: constant (~7 days, model-specific) | 0.0684 | 0.901 | 0.176
in vitro model: dormancy (butyrate + nitrate, low O2), time point: terminal (~4-5 doublings, model-specific) | 0.0437 | 0.978 | -0.0601
in vitro model: standard 7H9 glycerol, time point: constant = terminal | 0.0814 | 0.877 | 0.161
in vitro model: valerate, time point: constant (~7 days, model-specific) | 0.0576 | 0.86 | 0.0731
in vitro model: valerate, time point: terminal (~4-5 doublings, model-specific) | 0.0385 | 0.943 | 0.0202

CO[C@H]1/C=C/O[C@@]2(C)Oc3c(C)c(O)c4c(O)c(c(/C=N/N5CCN(C6CCCC6)CC5)c(O)c4c3C2=O)NC(=O)/C(C)=C\C=C\[C@H](C)[C@H](O)[C@@H](C)[C@@H](O)[C@@H](C)[C@H](OC(C)=O)[C@@H]1C [rifapentine]
Conditions | AUC25, [2] | Einf, [3] | GRinf, [1]
in vitro model: acidic pH 5.7, time point: constant (~7 days, model-specific) | 0.0584 | 0.831 | -0.0781
in vitro model: acidic pH 5.7, time point: terminal (~4-5 doublings, model-specific) | 0.0625 | 0.974 | -0.181
in vitro model: intracellular J774, time point: constant = terminal | – | 0.973 | -0.197

Conditions | AUC25, [2] | Einf, [3] | GRinf, [1]
in vitro model: butyrate, time point: constant (~7 days, model-specific) | 0.0929 | 0.891 | 0.117
in vitro model: butyrate, time point: terminal (~4-5 doublings, model-specific) | 0.0749 | 0.942 | 0.0762
in vitro model: cholesterol 0.05 mM, time point: constant (~7 days, model-specific) | 0.104 | 0.553 | 0.164
in vitro model: cholesterol 0.05 mM, time point: terminal (~4-5 doublings, model-specific) | 0.065 | 0.861 | -0.00856
in vitro model: cholesterol-high 0.2 mM, time point: constant (~7 days, model-specific) | 0.0607 | 0.877 | -0.186
in vitro model: cholesterol-high 0.2 mM, time point: terminal (~4-5 doublings, model-specific) | 0.053 | 1 | -0.735
in vitro model: dormancy (butyrate + nitrate, low O2), time point: constant (~7 days, model-specific) | 0.0644 | 0.908 | 0.218
in vitro model: dormancy (butyrate + nitrate, low O2), time point: terminal (~4-5 doublings, model-specific) | 0.0566 | 0.989 | -0.11
in vitro model: standard 7H9 glycerol, time point: constant = terminal | 0.0489 | 0.894 | 0.0516
in vitro model: valerate, time point: constant (~7 days, model-specific) | 0.0524 | 0.855 | 0.056
in vitro model: valerate, time point: terminal (~4-5 doublings, model-specific) | 0.0266 | 0.937 | 0.0374
